In ChEMBL document CHEMBL1201862, “PubChem BioAssay data set” (2004):
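These data come from cells grown in 96-well plates and exposed to compound for 48 hours at five concentrations. GI50: concentration for 50% inhibition of growth.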 Activity calls are given as the source filed them. Cut-off read from the data, not from the text of the source: active = GI50 up to about 1.1 µM and inactive = higher.

Tests used:
Assay in all cases: growth of human tumour cells (NCI), 48 h
SR = test system: SR
OVCAR-4 = test system: OVCAR-4
KM12 = test system: KM12
M14 = test system: M14
ACHN = test system: ACHN
NCI-H226 = test system: NCI-H226
RPMI-8226 = test system: RPMI-8226
HOP-92 = test system: HOP-92
HCC 2998 = test system: HCC 2998
HT-29 = test system: HT-29
SN12C = test system: SN12C
OVCAR-5 = test system: OVCAR-5
UO-31 = test system: UO-31
A498 = test system: A498
XF498 = test system: XF498
HCT-116 = test system: HCT-116
A549 = test system: A549
OVCAR-8 = test system: OVCAR-8
786-0 = test system: 786-0
LXFL 529 = test system: LXFL 529
SK-OV-3 = test system: SK-OV-3
M19-MEL = test system: M19-MEL
CCRF-CEM = test system: CCRF-CEM
LOX IMVI = test system: LOX IMVI
NCI-H522 = test system: NCI-H522
EKVX = test system: EKVX
HCT-15 = test system: HCT-15
SK-MEL-5 = test system: SK-MEL-5
NCI-H460 = test system: NCI-H460
CAKI-1 = test system: CAKI-1
COLO 205 = test system: COLO 205
IGROV-1 = test system: IGROV-1
HL-60 = test system: HL-60
HOP-18 = test system: HOP-18
DLD-1 = test system: DLD-1
TK-10 = test system: TK-10
SF-268 = test system: SF-268
HOP-62 = test system: HOP-62
Malme-3M = test system: Malme-3M
MOLT-4 = test system: MOLT-4
NCI-H23 = test system: NCI-H23
SNB-75 = test system: SNB-75
SNB-78 = test system: SNB-78
K562 = test system: K562
UACC-62 = test system: UACC-62
SW-620 = test system: SW-620
SK-MEL-28 = test system: SK-MEL-28
SK-MEL-2 = test system: SK-MEL-2
U-251 = test system: U-251
SF-539 = test system: SF-539
UACC-257 = test system: UACC-257
DMS-114 = test system: DMS-114
SF-295 = test system: SF-295
RXF 393 = test system: RXF 393
DMS-273 = test system: DMS-273
SNB-19 = test system: SNB-19
KM-20L2 = test system: KM-20L2
OVCAR-3 = test system: OVCAR-3

Measured: GI50

O=C(N/N=C(/c1nc2ccc([N+](=O)[O-])cc2[nH]c1=O)C(O)c1ccc([N+](=O)[O-])cc1)c1ccncc1 (centres undefined)
inactive: SR > 100 µM | OVCAR-4 > 100 µM | KM12 59 µM | M14 45.9 µM | ACHN 39.7 µM | NCI-H226 > 100 µM | RPMI-8226 > 100 µM | HOP-92 > 100 µM | HCC 2998 41.6 µM | HT-29 > 100 µM | SN12C > 100 µM | OVCAR-5 > 100 µM | UO-31 > 100 µM | A498 > 100 µM | XF498 > 100 µM | HCT-116 > 100 µM | A549 69 µM | OVCAR-8 > 100 µM | 786-0 > 100 µM | LXFL 529 53.1 µM | SK-OV-3 > 100 µM | M19-MEL > 100 µM | CCRF-CEM 16.3 µM | LOX IMVI > 100 µM | NCI-H522 6.64 µM | EKVX > 100 µM | SK-MEL-5 36.3 µM | NCI-H460 > 100 µM | CAKI-1 42 µM | COLO 205 > 100 µM | IGROV-1 > 100 µM | HL-60 26.4 µM | HOP-18 > 100 µM | DLD-1 > 100 µM | TK-10 > 100 µM | SF-268 > 100 µM | HOP-62 69.7 µM | Malme-3M > 100 µM | MOLT-4 > 100 µM | NCI-H23 > 100 µM | SNB-75 > 100 µM | SNB-78 > 100 µM | K562 23.1 µM | UACC-62 > 100 µM | SW-620 > 100 µM | SK-MEL-28 > 100 µM | SK-MEL-2 > 100 µM | U-251 > 100 µM | SF-539 75.5 µM | UACC-257 > 100 µM | DMS-114 13.4 µM | SF-295 > 100 µM
23.1 µM: HCT-15

Cc1ccc2nc3c(Cl)c(C)c(=O)cc-3sc2c1
inactive: SR > 10 µM | RPMI-8226 23 µM | HOP-92 64 µM | RXF 393 21.5 µM | UO-31 52.5 µM | A498 > 100 µM | A549 70.5 µM | OVCAR-8 51.1 µM | SK-OV-3 > 10 µM | CCRF-CEM 7.18 µM | LOX IMVI 42.1 µM | NCI-H522 35.3 µM | SK-MEL-5 60.3 µM | CAKI-1 > 10 µM | COLO 205 > 10 µM | IGROV-1 > 10 µM | HL-60 26.4 µM | HOP-18 > 10 µM | MOLT-4 10.7 µM | K562 26.9 µM | SW-620 83.4 µM | SK-MEL-28 > 10 µM | DMS-273 76 µM | SF-295 41.2 µM

COc1cc(/C=C(\C#N)C(=O)c2ccccc2)ccc1O
> 100 µM: HCT-15
inactive: SR > 100 µM | OVCAR-4 > 100 µM | KM12 > 100 µM | SNB-19 > 100 µM | M14 > 100 µM | ACHN > 100 µM | NCI-H226 > 100 µM | RPMI-8226 > 100 µM | HCC 2998 > 100 µM | HT-29 > 100 µM | SN12C > 100 µM | OVCAR-5 > 100 µM | UO-31 > 100 µM | A498 > 100 µM | XF498 > 100 µM | HCT-116 > 100 µM | A549 > 100 µM | OVCAR-8 > 100 µM | 786-0 > 100 µM | LXFL 529 > 100 µM | SK-OV-3 > 100 µM | M19-MEL > 100 µM | CCRF-CEM 82.8 µM | LOX IMVI > 100 µM | NCI-H522 > 100 µM | EKVX > 100 µM | SK-MEL-5 > 100 µM | NCI-H460 > 100 µM | CAKI-1 > 100 µM | COLO 205 > 100 µM | IGROV-1 > 100 µM | HL-60 46.6 µM | KM-20L2 > 100 µM | TK-10 > 100 µM | SF-268 > 100 µM | HOP-62 > 100 µM | Malme-3M > 100 µM | MOLT-4 > 100 µM | NCI-H23 > 100 µM | OVCAR-3 34.4 µM | SNB-78 > 100 µM | K562 > 100 µM | UACC-62 > 100 µM | SW-620 > 100 µM | SK-MEL-28 > 100 µM | SK-MEL-2 > 100 µM | U-251 > 100 µM | SF-539 > 100 µM | UACC-257 > 100 µM | SF-295 > 100 µM

Cc1cc(C)n(-c2nsc3ccccc23)n1
> 100 µM: HCT-15
inactive: SR > 100 µM | OVCAR-4 > 100 µM | KM12 > 100 µM | SNB-19 > 100 µM | M14 > 100 µM | ACHN > 100 µM | RPMI-8226 > 100 µM | HOP-92 80.5 µM | HCC 2998 > 100 µM | HT-29 > 100 µM | RXF 393 > 100 µM | SN12C > 100 µM | OVCAR-5 > 100 µM | UO-31 > 100 µM | HCT-116 > 100 µM | A549 > 100 µM | OVCAR-8 > 100 µM | LXFL 529 > 100 µM | M19-MEL > 100 µM | CCRF-CEM > 100 µM | LOX IMVI > 100 µM | EKVX 91.4 µM | SK-MEL-5 > 100 µM | NCI-H460 > 100 µM | COLO 205 > 100 µM | IGROV-1 > 100 µM | HL-60 > 100 µM | KM-20L2 > 100 µM | HOP-18 15.8 µM | TK-10 > 100 µM | SF-268 > 100 µM | HOP-62 > 100 µM | MOLT-4 > 100 µM | NCI-H23 > 100 µM | SNB-75 26.9 µM | OVCAR-3 > 100 µM | SNB-78 > 100 µM | K562 89.1 µM | UACC-62 > 100 µM | SW-620 > 100 µM | SK-MEL-28 > 100 µM | SK-MEL-2 > 100 µM | U-251 > 100 µM | SF-539 > 100 µM | DMS-273 > 100 µM | UACC-257 > 100 µM | DMS-114 > 100 µM

NC(CCC(=O)NC(CSC(=O)N(O)c1ccc(Br)cc1)C(=O)NCC(=O)O)C(=O)O (centres undefined)
77.6 µM: HCT-15
inactive: SR 81.7 µM | SNB-19 > 100 µM | M14 30 µM | ACHN 25.1 µM | NCI-H226 > 100 µM | RPMI-8226 66.4 µM | UO-31 90.4 µM | A498 > 100 µM | HCT-116 88.5 µM | OVCAR-8 > 100 µM | LXFL 529 46.9 µM | SK-OV-3 29.2 µM | M19-MEL > 100 µM | CCRF-CEM > 100 µM | LOX IMVI 61.5 µM | NCI-H522 > 100 µM | SK-MEL-5 > 100 µM | CAKI-1 70.3 µM | COLO 205 > 100 µM | IGROV-1 > 100 µM | HL-60 > 100 µM | KM-20L2 35.2 µM | HOP-18 38.2 µM | DLD-1 86.5 µM | TK-10 > 100 µM | Malme-3M > 100 µM | SNB-78 > 100 µM | K562 76.2 µM | UACC-62 > 100 µM | DMS-273 > 100 µM | DMS-114 > 100 µM

C[C@]12CCC(=O)C=C1CC[C@@H]1[C@@H]2[C@@H](O)C[C@@]2(C)[C@H]1CC[C@]2(O)C(=O)COC(=O)CCC1CCCC1 [HYDROCORTISONE CYPIONATE]
active: NCI-H226 0.0728 µM | SN12C 0.693 µM | OVCAR-5 0.0881 µM
inactive: SR > 100 µM | KM12 > 100 µM | SNB-19 > 100 µM | ACHN > 100 µM | HOP-92 > 100 µM | HCC 2998 > 100 µM | HT-29 > 100 µM | RXF 393 > 100 µM | UO-31 > 100 µM | A498 > 100 µM | XF498 > 100 µM | HCT-116 > 100 µM | A549 > 100 µM | OVCAR-8 > 100 µM | 786-0 > 100 µM | LXFL 529 > 100 µM | SK-OV-3 5.83 µM | M19-MEL > 100 µM | CCRF-CEM 95.9 µM | LOX IMVI > 100 µM | NCI-H522 > 100 µM | EKVX > 100 µM | SK-MEL-5 > 100 µM | NCI-H460 > 100 µM | CAKI-1 87.5 µM | COLO 205 > 100 µM | IGROV-1 > 100 µM | HL-60 72.9 µM | KM-20L2 > 100 µM | DLD-1 > 100 µM | TK-10 > 100 µM | SF-268 > 100 µM | Malme-3M > 100 µM | MOLT-4 > 100 µM | NCI-H23 > 100 µM | SNB-75 > 100 µM | OVCAR-3 > 100 µM | SNB-78 > 100 µM | UACC-62 > 100 µM | SW-620 > 100 µM | SK-MEL-28 > 100 µM | U-251 > 100 µM | SF-539 > 100 µM | DMS-273 61.1 µM | UACC-257 > 100 µM | DMS-114 > 100 µM | SF-295 > 100 µM
> 100 µM: HCT-15
